The text below walks through data of PMC12706802, “Ortho-Hydroxyanilides: Slow-Acting, Selective Histone Deacetylase 1/2 Inhibitors Suitable for Photocaging Applications” (ACS Pharmacology & Translational Science, 2025).

One test relates to HDACs in HEK293 cells. Briefly: HDAC whole cell inhibition assay. To be noted: Homo sapiens, HEK293, read-out: whole-cell HDAC inhibition EC50, HEK293.
In test [1] the test system is HDACs in MDA-MB-231 cells. Briefly: HDAC whole cell inhibition assay. To be noted: Homo sapiens, MDA-MB-231, light or radiation study, 18 h, read-out: whole-cell HDAC inhibition EC50, MDA-MB-231.
Test [2] relates to HDAC2. To be noted: literature value for Cpd-60; ref number not given; cited from earlier work.
The test system of a further test is HDAC3. More on the design: method as in earlier work. The note with it: Figure 1 and b11; ref 'Data taken from refs' (numbers not given); cited from earlier work.
For the next test, the system named is HDACs in MM.1S cells. Briefly: HDAC whole cell inhibition assay. The note with it: Homo sapiens, MM1.S, read-out: whole-cell HDAC inhibition EC50, MM.1S.
For test [3], the system named is Ac-histone H3 (class I HDACs). The test is described as follows: Immunoblot analysis of MV-3 cell lysates incl. wash out. To be noted: for histone H3 acetylation after wash out (immunoblot): MV-3, 5 μM for 48 h, then up to 6 h without inhibitor; for acetylation level of histone H3 (immunoblot): MV-3, 5 μM, 24–72 h, substantial increase after 72 h. It counts as cell-based, human. On the procedure:
The impact on the acetylation levels of the HDAC substrates Ac-histone H3 (class I HDACs) and Ac-α-tubulin (HDAC6) was analyzed by immunoblot analysis.
6 Immunoblot analysis of MV-3 cell lysates. […] Representative images from at least three replicates are shown. DMSO (0.025%) was used as vehicle control and GAPDH as loading control.
After that, cells were treated with a concentration of 5 μM of HDAC inhibitor or vehicle (DMSO) for additional 24 h, 48 h or 72 h. For cell lysis the cells were initially washed with PBS and detached using a scraper. The cells were then centrifuged at 1200 rpm for 4 min at 4 °C, followed by two additional washing steps. After that, the cell pellet was resuspended in 100 μL of freshly prepared lysis buffer and incubated on ice for 30 min with vortexing every 10 min. The lysis buffer consisted of Invitrogen cell extraction buffer (10 mM Tris, pH 7.4, 100 mM NaCl, […], […], 1 mM NaF, 20 mM Na4P2O7, 2 mM Na3VO4, 1% Triton × −100, 10% glycerol, 0.1% SDS, 0.5% deoxycholate; Catalog# FNN0011, Thermo Fisher Scientific Inc., Waltham, MA, USA), supplemented with 0.1 mM PMSF (Catalog# 10837091001, Sigma-Aldrich, St. Louis, MO, USA) and Halt Protease Inhibitor (100×) (Catalog# 78429, Life Technologies GmbH Carlsbad, CA, USA). Finally, the samples were centrifuged at 14,000 rpm and 4 °C for 30 min and the supernatant was collected. Protein quantification was performed by using BCA protein assay reagents (Catalog# 23225, Thermo Fisher Scientific Inc., Waltham, MA, USA). Lysates were mixed with Laemmli sample buffer 2× concentrate (Catalog# S3401-10VL, Sigma-Aldrich, St. Louis, MO, USA) to a protein concentration of 1.25 μg/μL and denatured at 95 °C for 5 min. Subsequently, SDS-PAGE was performed with 2–20% Mini-PROTEAN TGX stain-free gels (Catalog# 456809, Bio-Rad, Hercules, CA, USA) at 200 V for 45 min. Proteins were then transferred to a Trans-Blot Turbo-PVDF membrane (Catalog# 1704156, Bio-Rad, Hercules, CA, USA) with the Trans-Blot Turbo Transfer System (Catalog# 1704150, Bio-Rad, Hercules, CA, USA) at 25 V for 5 min. The membrane was blocked with a solution of 5% milk powder in TBST (Tris-buffered saline-Tween 20 0.2%) for 60 min at room temperature. After three washing cycles for 10 min with TBST, the membrane was incubated with the respective antibody and a mouse anti-GAPDH antibody (Catalog# T0004, Affinity Biosciences, Cincinnati, OH, USA; 1:20,000 dilution) at room temperature for 60 min and 4 °C overnight. […] After washing off the secondary antibody, protein bands were detected via chemiluminescence using Clarity Western ECL substrate (Catalog# 1705061, Bio-Rad, Hercules, CA, USA). […]

In a further test the test system is MDA-MB-231 cells. The test is described as follows: Annexin V/PI apoptosis assay. To be noted: MDA-MB-231, 10 μM, 48 h.
For test [4], the target named is T1, HDAC2 (Homo sapiens, UniProt Q92769). Briefly: Fluorescence-based biochemical HDAC enzyme inhibition assay (ZMAL substrate). The note with it: HDAC2 IC50, preincubation of enzyme and inhibitor 1 h at RT; no irradiation.
T1 sequence (Q92769 whole entry): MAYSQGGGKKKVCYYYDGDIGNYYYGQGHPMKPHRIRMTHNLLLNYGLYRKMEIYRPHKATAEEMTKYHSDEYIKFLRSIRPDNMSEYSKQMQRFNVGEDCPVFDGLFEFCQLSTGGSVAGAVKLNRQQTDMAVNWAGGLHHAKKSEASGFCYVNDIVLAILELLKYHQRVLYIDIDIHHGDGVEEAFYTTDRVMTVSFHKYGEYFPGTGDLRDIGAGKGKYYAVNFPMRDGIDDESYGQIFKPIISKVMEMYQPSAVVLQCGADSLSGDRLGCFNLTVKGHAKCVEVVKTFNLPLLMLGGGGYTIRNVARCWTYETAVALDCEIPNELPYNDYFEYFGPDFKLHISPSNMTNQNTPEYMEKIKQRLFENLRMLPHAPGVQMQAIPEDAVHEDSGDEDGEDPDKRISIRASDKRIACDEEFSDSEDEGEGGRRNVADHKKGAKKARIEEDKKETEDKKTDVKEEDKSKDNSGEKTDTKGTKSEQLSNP
Test [5] has as its target T1, HDAC2. Briefly: IC50-shift (preincubation time) experiments.
Test [6] has as its target T1, HDAC2. The test is described as follows: 100-fold jump-dilution experiments. To be noted: 1 h incubation at 10-fold IC50, then 1:100 dilution.
For test [7], the target named is T2, HDAC1 (Homo sapiens, UniProt Q13547). The test is described as follows: IC50-shift (preincubation time) experiments.
T2 sequence (Q13547 whole entry): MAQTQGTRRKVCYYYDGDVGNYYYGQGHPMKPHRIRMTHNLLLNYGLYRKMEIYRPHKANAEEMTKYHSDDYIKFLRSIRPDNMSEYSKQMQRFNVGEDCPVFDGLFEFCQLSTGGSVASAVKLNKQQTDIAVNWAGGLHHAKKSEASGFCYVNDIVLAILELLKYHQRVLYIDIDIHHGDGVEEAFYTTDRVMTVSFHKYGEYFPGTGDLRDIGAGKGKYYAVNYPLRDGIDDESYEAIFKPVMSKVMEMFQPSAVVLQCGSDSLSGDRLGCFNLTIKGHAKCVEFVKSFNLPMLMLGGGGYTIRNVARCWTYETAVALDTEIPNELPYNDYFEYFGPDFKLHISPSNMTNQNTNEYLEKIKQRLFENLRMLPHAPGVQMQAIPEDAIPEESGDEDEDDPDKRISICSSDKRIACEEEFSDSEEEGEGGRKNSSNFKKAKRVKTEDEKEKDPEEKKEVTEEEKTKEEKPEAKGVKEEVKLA
In test [8] the target is T2, HDAC1. Briefly: 100-fold jump-dilution experiments. To be noted: 1 h incubation at 5-fold IC50, then 1:100 dilution.

For `CC(=O)Nc1ccc(C(=O)Nc2cc(-c3cccs3)ccc2N)cc1` [Cpd-60, reference compound], the EC50 is 0.178 ± 0.023 µM with HDACs in HEK293 cells, 0.087 ± 0.008 µM in test [1] and 0.111 ± 0.038 µM in the test on HDACs in MM.1S cells. Besides, the IC50 in the test on HDAC2 [2] is 0.049 µM; with HDAC3, […]. Also, the “histone H3 acetylation after wash out (immunoblot)” value in test [3] is “persistent histone H3 acetylation”. In addition, in test [3], the “acetylation level of histone H3 (immunoblot)” value is recorded as “hyperacetylation of histone H3”. The “apoptosis induction (annexin V/PI)” value in the test on MDA-MB-231 cells is recorded as “significantly induced apoptosis”.

As to `CC(=O)Nc1ccc(C(=O)Nc2cc(-c3ccccc3)ccc2O)cc1` [ST13, 4-Acetamido-N-(4-hydroxy-[1,1′-biphenyl]-3-yl)-benzamide], the EC50 in the test on HDACs in HEK293 cells worked out at 0.333 ± 0.064 µM; in test [1] it was 0.577 ± 0.097 µM; in the test with HDACs in MM.1S cells, 0.637 ± 0.158 µM. The IC50 is 0.049 ± 0.003 µM against HDAC2 [4]; 0.082 ± 0.012 µM at HDAC2 [5] (HDAC2 IC50, preincubation time 5 min); 0.083 ± 0.003 µM at HDAC2 [5] (HDAC2 IC50, preincubation time 30 min); 0.075 ± 0.005 µM at HDAC2 [5] (HDAC2 IC50, preincubation time 60 min); 0.049 ± 0.009 µM on HDAC2 [5] (HDAC2 IC50, preincubation time 120 min); 0.055 ± 0.007 µM at HDAC1 [7] (HDAC1 IC50, preincubation time 5 min). Also, the IC50 at HDAC1 [7] (HDAC1 IC50, preincubation time 30 min) came to 0.036 ± 0.004 µM; on HDAC1 [7] (HDAC1 IC50, preincubation time 60 min) it was 0.034 ± 0.005 µM; on HDAC1 [7] (HDAC1 IC50, preincubation time 120 min), 0.025 ± 0.003 µM. Besides, the “histone H3 acetylation after wash out (immunoblot)” value in [3] is on record as “persistent histone H3 acetylation”. Also, the “acetylation level of histone H3 (immunoblot)” value in test [3] was “hyperacetylation of histone H3”. The “dissociation behavior from HDAC2 upon 100-fold dilution” value at HDAC2 [6] is reported as “tight-binding properties”. Also, the “apoptosis induction (annexin V/PI)” value in the test with MDA-MB-231 cells is on record as “significantly induced apoptosis”. The “dissociation behavior from HDAC1 upon 100-fold dilution” value on HDAC1 [8] was “tight-binding properties”.
